{
  "source": "ChEMBL document CHEMBL3244022",
  "about": "“Total syntheses of (+/-)-1-carbacefoxitin and -cefamandole and (+/-)-1-oxacefamandole” (1977)",
  "type_in_all_cases": "functional",
  "key": {"Enterobacter": {"system": "Enterobacter", "test": "Antimicrobial activity against Enterobacter 2902 by agar dilution method"}, "Providencia": {"system": "Providencia", "test": "Antimicrobial activity against Providencia 2851 by agar dilution method"}, "Enterococcus": {"system": "Enterococcus", "test": "Antimicrobial activity against Enterococcus 2862 by agar dilution method"}, "Enterobacteriaceae [1]": {"system": "Enterobacteriaceae", "test": "Antimicrobial activity against Aerobacter 2826 by agar dilution method"}, "Staphylococcus aureus": {"system": "Staphylococcus aureus", "test": "Antimicrobial activity against Staphylococcus aureus 2865 by agar dilution method"}, "Escherichia coli": {"system": "Escherichia coli", "test": "Antimicrobial activity against Escherichia coli 2884 by agar dilution method"}, "Klebsiella": {"system": "Klebsiella", "test": "Antimicrobial activity against Klebsiella 2882 by agar dilution method"}, "Morganella morganii": {"system": "Morganella morganii", "test": "Antimicrobial activity against Proteus morganii 2834 by agar dilution method"}, "Enterobacteriaceae [2]": {"system": "Enterobacteriaceae", "test": "Antimicrobial activity against Aerobacter 2828 by agar dilution method"}, "Streptococcus pyogenes": {"system": "Streptococcus pyogenes", "test": "Antimicrobial activity against Streptococcus pyogenes 3124 by agar dilution method"}, "Proteus vulgaris": {"system": "Proteus vulgaris", "test": "Antimicrobial activity against Proteus vulgaris 2829 by agar dilution method"}, "Serratia": {"system": "Serratia", "test": "Antimicrobial activity against Serratia 2852 by agar dilution method"}, "Pseudomonas": {"system": "Pseudomonas", "test": "Antimicrobial activity against Pseudomonas by agar dilution method"}, "Proteus mirabilis": {"system": "Proteus mirabilis", "test": "Antimicrobial activity against Proteus mirabilis 2830 by agar dilution method"}},
  "data": [
    {"smiles": "Cn1nnnc1SCC1=C(C(=O)O)N2C(=O)[C@@H](NC(=O)C(O)c3ccccc3)[C@H]2CC1", "note": "(mixture of isomers)", "values": [
      {"measurement": "MIC", "setting": "Enterobacter", "value": "> 100", "unit": "µg/mL"},
      {"measurement": "MIC", "setting": "Providencia", "value": 6.25, "unit": "µg/mL"},
      {"measurement": "MIC", "setting": "Enterococcus", "value": "> 100", "unit": "µg/mL"},
      {"measurement": "MIC", "setting": "Enterobacteriaceae [1]", "value": 1.56, "unit": "µg/mL"},
      {"measurement": "MIC", "setting": "Staphylococcus aureus", "value": 1.56, "unit": "µg/mL"},
      {"measurement": "MIC", "setting": "Escherichia coli", "value": 1.56, "unit": "µg/mL"},
      {"measurement": "MIC", "setting": "Klebsiella", "value": 1.56, "unit": "µg/mL"},
      {"measurement": "MIC", "setting": "Morganella morganii", "value": 6.25, "unit": "µg/mL"},
      {"measurement": "MIC", "setting": "Enterobacteriaceae [2]", "value": "> 100", "unit": "µg/mL"},
      {"measurement": "MIC", "setting": "Streptococcus pyogenes", "value": 3.12, "unit": "µg/mL"},
      {"measurement": "MIC", "setting": "Proteus vulgaris", "value": 6.25, "unit": "µg/mL"},
      {"measurement": "MIC", "setting": "Serratia", "value": "> 100", "unit": "µg/mL"},
      {"measurement": "MIC", "setting": "Pseudomonas", "value": "> 100", "unit": "µg/mL"},
      {"measurement": "MIC", "setting": "Proteus mirabilis", "value": 25, "unit": "µg/mL"}
    ]},
    {"smiles": "Cn1nnnc1SCC1=C(C(=O)O)N2C(=O)[C@@H](NC(=O)[C@H](O)c3ccccc3)[C@H]2OC1", "note": "(racemic)", "values": [
      {"measurement": "MIC", "setting": "Enterobacter", "value": 12.5, "unit": "µg/mL"},
      {"measurement": "MIC", "setting": "Providencia", "value": 2.56, "unit": "µg/mL"},
      {"measurement": "MIC", "setting": "Enterococcus", "value": 25, "unit": "µg/mL"},
      {"measurement": "MIC", "setting": "Enterobacteriaceae [1]", "value": "< 0.39", "unit": "µg/mL"},
      {"measurement": "MIC", "setting": "Staphylococcus aureus", "value": "< 0.39", "unit": "µg/mL"},
      {"measurement": "MIC", "setting": "Escherichia coli", "value": "< 0.39", "unit": "µg/mL"},
      {"measurement": "MIC", "setting": "Klebsiella", "value": 0.78, "unit": "µg/mL"},
      {"measurement": "MIC", "setting": "Morganella morganii", "value": 1.28, "unit": "µg/mL"},
      {"measurement": "MIC", "setting": "Enterobacteriaceae [2]", "value": 25, "unit": "µg/mL"},
      {"measurement": "MIC", "setting": "Streptococcus pyogenes", "value": "< 0.39", "unit": "µg/mL"},
      {"measurement": "MIC", "setting": "Proteus vulgaris", "value": 1.28, "unit": "µg/mL"},
      {"measurement": "MIC", "setting": "Serratia", "value": "> 100", "unit": "µg/mL"},
      {"measurement": "MIC", "setting": "Pseudomonas", "value": "> 100", "unit": "µg/mL"},
      {"measurement": "MIC", "setting": "Proteus mirabilis", "value": 100, "unit": "µg/mL"}
    ]},
    {"smiles": "CO[C@@]1(NC(=O)Cc2cccs2)C(=O)N2C(C(=O)O)=C(COC(N)=O)CC[C@@H]21", "note": "(racemic)", "values": [
      {"measurement": "MIC", "setting": "Enterobacter", "value": "> 100", "unit": "µg/mL"},
      {"measurement": "MIC", "setting": "Providencia", "value": 6.25, "unit": "µg/mL"},
      {"measurement": "MIC", "setting": "Enterococcus", "value": "> 100", "unit": "µg/mL"},
      {"measurement": "MIC", "setting": "Enterobacteriaceae [1]", "value": 12.5, "unit": "µg/mL"},
      {"measurement": "MIC", "setting": "Staphylococcus aureus", "value": 6.25, "unit": "µg/mL"},
      {"measurement": "MIC", "setting": "Escherichia coli", "value": 12.5, "unit": "µg/mL"},
      {"measurement": "MIC", "setting": "Klebsiella", "value": 6.25, "unit": "µg/mL"},
      {"measurement": "MIC", "setting": "Morganella morganii", "value": 6.25, "unit": "µg/mL"},
      {"measurement": "MIC", "setting": "Enterobacteriaceae [2]", "value": "> 100", "unit": "µg/mL"},
      {"measurement": "MIC", "setting": "Streptococcus pyogenes", "value": 6.25, "unit": "µg/mL"},
      {"measurement": "MIC", "setting": "Proteus vulgaris", "value": 6.25, "unit": "µg/mL"},
      {"measurement": "MIC", "setting": "Serratia", "value": 50, "unit": "µg/mL"},
      {"measurement": "MIC", "setting": "Pseudomonas", "value": "> 100", "unit": "µg/mL"},
      {"measurement": "MIC", "setting": "Proteus mirabilis", "value": 12.5, "unit": "µg/mL"}
    ]},
    {"smiles": "Cn1nnnc1SCC1=C(C(=O)O)N2C(=O)[C@@H](NC(=O)[C@H](O)c3ccccc3)[C@H]2SC1", "note": "[CEFAMANDOLE]", "values": [
      {"measurement": "MIC", "setting": "Enterobacter", "value": 50, "unit": "µg/mL"},
      {"measurement": "MIC", "setting": "Providencia", "value": 3.12, "unit": "µg/mL"},
      {"measurement": "MIC", "setting": "Enterococcus", "value": 50, "unit": "µg/mL"},
      {"measurement": "MIC", "setting": "Enterobacteriaceae [1]", "value": "< 0.39", "unit": "µg/mL"},
      {"measurement": "MIC", "setting": "Staphylococcus aureus", "value": "< 0.39", "unit": "µg/mL"},
      {"measurement": "MIC", "setting": "Escherichia coli", "value": "< 0.39", "unit": "µg/mL"},
      {"measurement": "MIC", "setting": "Klebsiella", "value": 1.56, "unit": "µg/mL"},
      {"measurement": "MIC", "setting": "Morganella morganii", "value": 6.25, "unit": "µg/mL"},
      {"measurement": "MIC", "setting": "Enterobacteriaceae [2]", "value": 50, "unit": "µg/mL"},
      {"measurement": "MIC", "setting": "Streptococcus pyogenes", "value": "< 0.39", "unit": "µg/mL"},
      {"measurement": "MIC", "setting": "Proteus vulgaris", "value": 1.56, "unit": "µg/mL"},
      {"measurement": "MIC", "setting": "Serratia", "value": "> 100", "unit": "µg/mL"},
      {"measurement": "MIC", "setting": "Pseudomonas", "value": "> 100", "unit": "µg/mL"},
      {"measurement": "MIC", "setting": "Proteus mirabilis", "value": 6.25, "unit": "µg/mL"}
    ]},
    {"smiles": "CO[C@@]1(NC(=O)Cc2cccs2)C(=O)N2C(C(=O)O)=C(COC(N)=O)CS[C@@H]21", "note": "[CEFOXITIN]", "values": [
      {"measurement": "MIC", "setting": "Enterobacter", "value": "> 100", "unit": "µg/mL"},
      {"measurement": "MIC", "setting": "Providencia", "value": 1.56, "unit": "µg/mL"},
      {"measurement": "MIC", "setting": "Enterococcus", "value": "> 100", "unit": "µg/mL"},
      {"measurement": "MIC", "setting": "Enterobacteriaceae [1]", "value": 0.78, "unit": "µg/mL"},
      {"measurement": "MIC", "setting": "Staphylococcus aureus", "value": 1.56, "unit": "µg/mL"},
      {"measurement": "MIC", "setting": "Escherichia coli", "value": 1.56, "unit": "µg/mL"},
      {"measurement": "MIC", "setting": "Klebsiella", "value": 3.12, "unit": "µg/mL"},
      {"measurement": "MIC", "setting": "Morganella morganii", "value": 6.25, "unit": "µg/mL"},
      {"measurement": "MIC", "setting": "Enterobacteriaceae [2]", "value": "> 100", "unit": "µg/mL"},
      {"measurement": "MIC", "setting": "Streptococcus pyogenes", "value": 0.78, "unit": "µg/mL"},
      {"measurement": "MIC", "setting": "Proteus vulgaris", "value": "< 0.39", "unit": "µg/mL"},
      {"measurement": "MIC", "setting": "Serratia", "value": 25, "unit": "µg/mL"},
      {"measurement": "MIC", "setting": "Pseudomonas", "value": "> 100", "unit": "µg/mL"},
      {"measurement": "MIC", "setting": "Proteus mirabilis", "value": 1.56, "unit": "µg/mL"}
    ]}
  ]
}
